Patent US11149031B2, “Substituted N-(3-fluoropropyl)-pyrrolidine compounds, processes for their preparation and therapeutic uses thereof” (SANOFI, priority 2016, dated 2021)
Read-outs that look alike come from different tables or passages of the source.

Key:
ERα in MCF7 cells = ERα in MCF7 cells (Homo sapiens (Human), UniProt P03372); assay: Test C: estrogen receptor degradation activity, ERα in cell western assay in MCF7 cells; type: cell-based; conditions: for DC50: 4 hours post compound addition, ERα in cell western, read-out: Degradation IC50; for % Degradation at 3 μM: 4 hours, relative to fulvestrant
Procedure, shortened: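 MCF7 cells in phenol red-free MEM alpha with 5% charcoal-dextran stripped FBS were treated 4 h with compound (9-point 1:5 dilutions, 3–0.000018 μM final; fulvestrant 0.1 μM as positive control). Fixed cells were immunostained for ERα (Alexa 488) and counterstained with Syto-64 for DNA.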

[1] = biological target: His6-ERα298-554 D538G mutant (ERα ligand-binding domain) (Homo sapiens (Human), UniProt P03372, D538G); assay: Test A: biochemical antagonist activity, LanthaScreen TR-FRET ERα coactivator assay, D538G mutant; conditions: read-out: Antagonism D538G IC50
Procedure, shortened: (§1)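 TR-FRET 520:495 nm emission ratio read after overnight room-temperature incubation; IC50 derived by 4-parameter logistic fit. Mix: 0.5 nM receptor LBD, 0.5 nM Tb-His6 antibody, 250 nM PGC1a peptide, 3 nM or 10 nM estradiol, pH 7.4 phosphate buffer.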

[2] = tested on: MCF7 cells expressing mutant estrogen receptor Tyr 537 Ser; assay: Test B: cell proliferation/viability assay (CellTiter-Glo) on MCF7 Tyr 537 Ser mutant; type: cell-based; conditions: Homo sapiens, MCF7, 168 h, MCF7 cells expressing ER Tyr 537 Ser mutant, 7 days of compound exposure, read-out: proliferation MCF7 Y537S IC50
Procedure, shortened: (§2)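 Parental MCF7 or MCF7 lines transfected with Tyr 537 Ser or Asp 538 Gly ER mutants (selected for estradiol-independent growth) were grown in phenol red-free MEM with 5% charcoal dextran-stripped FBS. Cells were treated with 9-point 1:5 dilutions (3-0.000001 μM final) for 7 days, then read by CellTiter-Glo luminescence.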

[3] = biological target: His6-ERα298-554 Y537S mutant (ERα ligand-binding domain) (Homo sapiens (Human), UniProt P03372, Y537S); assay: Test A: biochemical antagonist activity, LanthaScreen TR-FRET ERα coactivator assay, Y537S mutant; conditions: read-out: Antagonism Y537S IC50
Procedure, shortened: as §1

[4] = tested on: MCF7 cells expressing mutant estrogen receptor Asp 538 Gly; assay: Test B: cell proliferation/viability assay (CellTiter-Glo) on MCF7 Asp 538 Gly mutant; type: cell-based; conditions: Homo sapiens, MCF7, 168 h, MCF7 cells expressing ER Asp 538 Gly mutant, 7 days of compound exposure, read-out: proliferation MCF7 D538G IC50
Procedure, shortened: as §2

[5] = tested on: MCF7 cells (breast tumor cells) WT; assay: Test B: cell proliferation/viability assay (CellTiter-Glo) on MCF7 WT; type: cell-based; conditions: Homo sapiens, MCF7, 168 h, 7 days of compound exposure
Procedure, shortened: as §2

[6] = biological target: His6-ERα298-554 WT (ERα ligand-binding domain) (Homo sapiens (Human), UniProt P03372); assay: Test A: biochemical antagonist activity, LanthaScreen TR-FRET ERα coactivator assay, WT; conditions: read-out: Antagonism WT IC50
Procedure, shortened: as §1

[7] = asterisk (*): protocol using 10 nM estradiol

His6-ERα298-554 D538G mutant (ERα ligand-binding domain), sequence (P03372 298-554 D538G): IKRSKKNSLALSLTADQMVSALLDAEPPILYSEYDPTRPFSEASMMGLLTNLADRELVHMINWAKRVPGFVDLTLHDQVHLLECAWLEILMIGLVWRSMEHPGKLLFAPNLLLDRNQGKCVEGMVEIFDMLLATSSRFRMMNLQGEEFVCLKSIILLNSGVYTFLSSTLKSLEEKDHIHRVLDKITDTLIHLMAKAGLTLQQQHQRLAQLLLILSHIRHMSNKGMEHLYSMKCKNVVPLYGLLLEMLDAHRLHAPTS
His6-ERα298-554 Y537S mutant (ERα ligand-binding domain), sequence (P03372 298-554 Y537S): as the sequence (P03372 298-554 D538G) above, with Y240S, G241D counted along it
ERα in MCF7 cells, sequence (P03372 whole entry): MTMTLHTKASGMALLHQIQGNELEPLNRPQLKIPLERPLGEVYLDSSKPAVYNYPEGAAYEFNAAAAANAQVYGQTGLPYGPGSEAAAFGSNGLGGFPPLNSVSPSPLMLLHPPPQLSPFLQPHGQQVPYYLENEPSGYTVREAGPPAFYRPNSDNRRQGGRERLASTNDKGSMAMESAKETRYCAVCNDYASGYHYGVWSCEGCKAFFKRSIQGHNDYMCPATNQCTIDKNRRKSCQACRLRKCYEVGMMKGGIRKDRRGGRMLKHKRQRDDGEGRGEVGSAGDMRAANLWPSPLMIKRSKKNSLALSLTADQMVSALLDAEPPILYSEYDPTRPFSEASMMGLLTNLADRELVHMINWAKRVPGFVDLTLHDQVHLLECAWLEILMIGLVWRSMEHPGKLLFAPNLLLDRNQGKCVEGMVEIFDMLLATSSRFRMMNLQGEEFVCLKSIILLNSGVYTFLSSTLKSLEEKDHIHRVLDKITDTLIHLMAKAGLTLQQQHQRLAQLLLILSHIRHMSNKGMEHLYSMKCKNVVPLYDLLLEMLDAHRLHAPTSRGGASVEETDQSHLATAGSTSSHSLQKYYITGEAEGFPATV
His6-ERα298-554 WT (ERα ligand-binding domain), sequence (P03372 298-554): as the sequence (P03372 298-554 D538G) above, with G241D counted along it

COc1ccc(C2=C(c3ccc(O[C@H]4CCN(CCCF)C4)cc3)c3ccc(O)cc3OCC2)c(C)c1 [Example 157, 5-[4-[(3S)-1-(3-fluoropropyl)pyrrolidin-3-yl]oxyphenyl]-4-(4-methoxy-2-methyl-phenyl)-2,3-dihydro-1-benzoxepin-8-ol]
DC50 (ERα in MCF7 cells): 0.2 nM | % Degradation at 3 μM (ERα in MCF7 cells): 90% | IC50 [1, 7]: 56 nM | IC50 [2]: 4 nM | IC50 [3, 7]: 36 nM | IC50 [4]: 0.6 nM | IC50 [5]: 0.2 nM | IC50 [6, 7]: 2 nM

Cc1cc(C2=C(c3ccc(O[C@H]4CCN(CCCF)C4)cc3)c3ccc(O)cc3SCC2)ccc1Cl [Example 162, 4-(4-chloro-3-methyl-phenyl)-5-[4-[(3S)-1-(3-fluoropropyl)pyrrolidin-3-yl]oxyphenyl]-2,3-dihydro-1-benzothiepin-8-ol]
DC50 (ERα in MCF7 cells): 0.8 nM | % Degradation at 3 μM (ERα in MCF7 cells): 90% | IC50 ([1]; protocol with 3 nM estradiol): 24 nM | IC50 [2]: 5 nM | IC50 ([3]; protocol with 3 nM estradiol): 19 nM | IC50 [4]: 1 nM | IC50 [5]: 0.4 nM | IC50 ([6]; protocol with 3 nM estradiol): 4 nM

Cc1ccc(C2=C(c3ccc(O[C@H]4CCN(CCCF)C4)cc3)c3ccc(O)cc3SCC2)c(F)c1 [Example 164, 4-(2-fluoro-4-methyl-phenyl)-5-[4-[(3S)-1-(3-fluoropropyl)pyrrolidin-3-yl]oxyphenyl]-2,3-dihydro-1-benzothiepin-8-ol]
DC50 (ERα in MCF7 cells): 0.5 nM | % Degradation at 3 μM (ERα in MCF7 cells): 91% | IC50 ([1]; protocol with 3 nM estradiol): 13 nM | IC50 [2]: 5 nM | IC50 ([3]; protocol with 3 nM estradiol): 9 nM | IC50 [4]: 0.6 nM | IC50 [5]: 0.6 nM | IC50 ([6]; protocol with 3 nM estradiol): 3 nM

Oc1ccc2c(c1)SCCC(c1ccc3cc[nH]c3c1)=C2c1ccc(O[C@H]2CCN(CCCF)C2)cc1 [Example 172, 5-[4-[(3S)-1-(3-fluoropropyl)pyrrolidin-3-yl]oxyphenyl]-4-(1H-indol-6-yl)-2,3-dihydro-1-benzothiepin-8-ol]
DC50 (ERα in MCF7 cells): 0.4 nM | % Degradation at 3 μM (ERα in MCF7 cells): 87% | IC50 ([1]; protocol with 3 nM estradiol): 24 nM | IC50 [2]: 12 nM | IC50 ([3]; protocol with 3 nM estradiol): 18 nM | IC50 [4]: 2 nM | IC50 [5]: 0.2 nM | IC50 ([6]; protocol with 3 nM estradiol): 6 nM

Oc1ccc2c(c1)SCCC(c1ccc3c(c1)CCN3)=C2c1ccc(O[C@H]2CCN(CCCF)C2)cc1 [Example 176, 5-[4-[(3S)-1-(3-fluoropropyl)pyrrolidin-3-yl]oxyphenyl]-4-indolin-5-yl-2,3-dihydro-1-benzothiepin-8-ol]
DC50 (ERα in MCF7 cells): 0.2 nM | % Degradation at 3 μM (ERα in MCF7 cells): 85% | IC50 ([1]; protocol with 3 nM estradiol): 28 nM | IC50 [2]: 48 nM | IC50 ([3]; protocol with 3 nM estradiol): 20 nM | IC50 [4]: 9 nM | IC50 [5]: 3 nM | IC50 ([6]; protocol with 3 nM estradiol): 6 nM

Oc1ccc2c(c1)SCCC(c1cccc3[nH]ccc13)=C2c1ccc(O[C@H]2CCN(CCCF)C2)cc1 [Example 178, 5-[4-[(3S)-1-(3-fluoropropyl)pyrrolidin-3-yl]oxyphenyl]-4-(1H-indol-4-yl)-2,3-dihydro-1-benzothiepin-8-ol]
DC50 (ERα in MCF7 cells): 0.4 nM | % Degradation at 3 μM (ERα in MCF7 cells): 87% | IC50 ([1]; protocol with 3 nM estradiol): 10 nM | IC50 [2]: 16 nM | IC50 ([3]; protocol with 3 nM estradiol): 7 nM | IC50 [4]: 2 nM | IC50 [5]: 0.5 nM | IC50 ([6]; protocol with 3 nM estradiol): 2 nM

Oc1ccc2c(c1)SCCC(c1cnc3c(c1)CCN3)=C2c1ccc(O[C@H]2CCN(CCCF)C2)cc1 [Example 183, 4-(2,3-dihydro-1H-pyrrolo[2,3-b]pyridin-5-yl)-5-[4-[(3S)-1-(3-fluoropropyl)pyrrolidin-3-yl]oxyphenyl]-2,3-dihydro-1-benzothiepin-8-ol]
DC50 (ERα in MCF7 cells): 1 nM | % Degradation at 3 μM (ERα in MCF7 cells): 83% | IC50 ([1]; protocol with 3 nM estradiol): 122 nM | IC50 [2]: 73 nM | IC50 ([3]; protocol with 3 nM estradiol): 70 nM | IC50 [4]: 5 nM | IC50 [5]: 1 nM | IC50 ([6]; protocol with 3 nM estradiol): 7 nM

Oc1ccc2c(c1)SCCC(c1ccc3occc3c1)=C2c1ccc(O[C@H]2CCN(CCCF)C2)cc1 [Example 184, 4-(benzofuran-5-yl)-5-[4-[(3S)-1-(3-fluoropropyl)pyrrolidin-3-yl]oxyphenyl]-2,3-dihydro-1-benzothiepin-8-ol]
DC50 (ERα in MCF7 cells): 0.7 nM | % Degradation at 3 μM (ERα in MCF7 cells): 87% | IC50 ([1]; protocol with 3 nM estradiol): 6 nM | IC50 [2]: 4 nM | IC50 ([3]; protocol with 3 nM estradiol): 4 nM | IC50 [4]: 0.7 nM | IC50 [5]: 0.3 nM | IC50 ([6]; protocol with 3 nM estradiol): 1 nM

CCOc1ccc(C2=C(c3ccc(O[C@H]4CCN(CCCF)C4)cc3)c3ccc(O)cc3SCC2)cc1F [Example 185, 4-(4-ethoxy-3-fluoro-phenyl)-5-[4-[(3S)-1-(3-fluoropropyl)pyrrolidin-3-yl]oxyphenyl]-2,3-dihydro-1-benzothiepin-8-ol]
DC50 (ERα in MCF7 cells): 0.7 nM | % Degradation at 3 μM (ERα in MCF7 cells): 84% | IC50 ([1]; protocol with 3 nM estradiol): 104 nM | IC50 [2]: 6 nM | IC50 ([3]; protocol with 3 nM estradiol): 65 nM | IC50 [4]: 1 nM | IC50 [5]: 0.4 nM | IC50 ([6]; protocol with 3 nM estradiol): 2.9 nM

CCOc1ccc(C2=C(c3ccc(O[C@H]4CCN(CCCF)C4)cc3)c3ccc(O)cc3SCC2)c(C)c1 [Example 186, 4-(4-ethoxy-2-methyl-phenyl)-5-[4-[(3S)-1-(3-fluoropropyl)pyrrolidin-3-yl]oxyphenyl]-2,3-dihydro-1-benzothiepin-8-ol]
DC50 (ERα in MCF7 cells): 0.6 nM | % Degradation at 3 μM (ERα in MCF7 cells): 85% | IC50 [1, 7]: 21 nM | IC50 [2]: 5 nM | IC50 [3, 7]: 16 nM | IC50 [4]: 0.4 nM | IC50 [5]: 0.3 nM | IC50 [6, 7]: 1 nM

CCOc1ccc(C2=C(c3ccc(O[C@H]4CCN(CCCF)C4)cc3)c3ccc(O)cc3SCC2)c(F)n1 [Example 187, 4-(6-ethoxy-2-fluoro-3-pyridyl)-5-[4-[(3S)-1-(3-fluoropropyl)pyrrolidin-3-yl]oxyphenyl]-2,3-dihydro-1-benzothiepin-8-ol]
DC50 (ERα in MCF7 cells): 0.5 nM | % Degradation at 3 μM (ERα in MCF7 cells): 92% | IC50 ([1]; protocol with 3 nM estradiol): 43 nM | IC50 [2]: 4 nM | IC50 ([3]; protocol with 3 nM estradiol): 22 nM | IC50 [4]: 0.7 nM | IC50 [5]: 0.2 nM | IC50 ([6]; protocol with 3 nM estradiol): 1.5 nM

Oc1ccc2c(c1)SCCC(c1ccc(F)c(OC(F)F)c1)=C2c1ccc(O[C@H]2CCN(CCCF)C2)cc1 [Example 188, 4-[3-(difluoromethoxy)-4-fluoro-phenyl]-5-[4-[(3S)-1-(3-fluoropropyl)pyrrolidin-3-yl]oxyphenyl]-2,3-dihydro-1-benzothiepin-8-ol]
DC50 (ERα in MCF7 cells): 0.8 nM | % Degradation at 3 μM (ERα in MCF7 cells): 90% | IC50 ([1]; protocol with 3 nM estradiol): 266 nM | IC50 [2]: 4 nM | IC50 ([3]; protocol with 3 nM estradiol): 157 nM | IC50 [4]: 2 nM | IC50 [5]: 0.2 nM | IC50 ([6]; protocol with 3 nM estradiol): 8.2 nM

COc1ccc(C2=C(c3ccc(O[C@H]4CCN(CCCF)C4)cc3)c3ccc(O)cc3SCC2)c(F)c1 [Example 189, 4-(2-fluoro-4-methoxy-phenyl)-5-[4-[(3S)-1-(3-fluoropropyl)pyrrolidin-3-yl]oxyphenyl]-2,3-dihydro-1-benzothiepin-8-ol]
DC50 (ERα in MCF7 cells): 0.3 nM | % Degradation at 3 μM (ERα in MCF7 cells): 88% | IC50 [1, 7]: 31 nM | IC50 [2]: 4 nM | IC50 [3, 7]: 19 nM | IC50 [4]: 1 nM | IC50 [5]: 0.2 nM | IC50 [6, 7]: 2 nM

Oc1ccc2c(c1)SCCC(c1ccc(OC(F)(F)F)c(F)c1)=C2c1ccc(O[C@H]2CCN(CCCF)C2)cc1 [Example 190, 5-[4-[(3S)-1-(3-fluoropropyl)pyrrolidin-3-yl]oxyphenyl]-4-[3-fluoro-4-(trifluoromethoxy)phenyl]-2,3-dihydro-1-benzothiepin-8-ol]
DC50 (ERα in MCF7 cells): 0.5 nM | % Degradation at 3 μM (ERα in MCF7 cells): 91% | IC50 [1, 7]: 638 nM | IC50 [2]: 6 nM | IC50 [3, 7]: 425 nM | IC50 [4]: 0.8 nM | IC50 [5]: 0.2 nM | IC50 [6, 7]: 39 nM

Oc1ccc2c(c1)SCCC(c1ccc(OC(F)F)c(F)c1)=C2c1ccc(O[C@H]2CCN(CCCF)C2)cc1 [Example 191, 4-[4-(difluoromethoxy)-3-fluoro-phenyl]-5-[4-[(3S)-1-(3-fluoropropyl)pyrrolidin-3-yl]oxyphenyl]-2,3-dihydro-1-benzothiepin-8-ol]
DC50 (ERα in MCF7 cells): 0.2 nM | % Degradation at 3 μM (ERα in MCF7 cells): 95% | IC50 ([1]; protocol with 3 nM estradiol): 51 nM | IC50 [2]: 3 nM | IC50 ([3]; protocol with 3 nM estradiol): 32 nM | IC50 [4]: 0.4 nM | IC50 [5]: 0.3 nM | IC50 ([6]; protocol with 3 nM estradiol): 3 nM

Cc1ccc(C2=C(c3ccc(O[C@H]4CCN(CCCF)C4)cc3)c3ccc(O)cc3SCC2)c(F)n1 [Example 192, 4-(2-fluoro-6-methyl-3-pyridyl)-5-[4-[(3S)-1-(3-fluoropropyl)pyrrolidin-3-yl]oxyphenyl]-2,3-dihydro-1-benzothiepin-8-ol]
DC50 (ERα in MCF7 cells): 0.4 nM | % Degradation at 3 μM (ERα in MCF7 cells): 91% | IC50 [1, 7]: 205 nM | IC50 [2]: 5 nM | IC50 [3, 7]: 109 nM | IC50 [4]: 0.9 nM | IC50 [5]: 0.3 nM | IC50 [6, 7]: 9 nM
